Measured values as given in patent US20260225997A1, “IONIZABLE AMINE LIPIDS” (Intellia Therapeutics, Inc., priority 2018, published 2026).
Read-outs that look alike come from different tables or passages of the source.

Legend:
[1] = pKa measurement of unformulated amine lipid (fluorescence, method of Jayaraman et al.); format: physicochemical; settings: 100 μM in 0.1 M phosphate buffer pH 4.5-9.0
Protocol: The pKa of each amine lipid was determined according to the method in Jayaraman, et al. (Angewandte Chemie, 2012) with the following adaptations. […] Lipid was diluted to 100 μM in 0.1 M phosphate buffer (Boston Bioproducts) where the pH ranged from 4.5-9.0. Fluorescence intensity was measured using excitation and emission wavelengths of 321 nm and 448 nm.

[2] = RNA encapsulation efficiency of LNP (Ribogreen fluorescence assay); format: physicochemical
Summary of the method: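 LNP samples diluted in 1× TE buffer with 0.2% Triton X-100 (total RNA) or without it (free RNA), stained with RiboGreen for ~10 min at room temperature in the dark, read at ex 488/em 525 nm against RNA standard curves. Encapsulation efficiency = (Total RNA − Free RNA)/Total RNA.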

[3] = test system: B2M; test: B2M editing in mouse liver by NGS after i.v. LNP delivery of Cas9 mRNA and sgRNA; format: in vivo; settings: for Editing (%) B2M liver: 6 days post-dose; for Editing (%) B2M liver / % Editing B2M in mouse liver: G650 1:1; for % Editing B2M in mouse liver: 7 days post-dose
Protocol: Preparations of various LNP compositions were prepared with amine lipids. In assays for percent liver editing in mice, Cas9 mRNA and chemically modified sgRNA were formulated in LNPs, at either a 1:1 w/w ratio or a 1:2 w/w ratio. LNPs are formulated with a composition of a given ionizable lipid (e.g. an amine lipid), DSPC, cholesterol, and PEG-2k-DMG, with a 6.0 N:P ratio.
LNPs were administered to mice by a single dose at 0.1 mg/kg, unless otherwise noted and genomic DNA was isolated for NGS analysis as described below.
CD-1 female mice, ranging from 6-10 weeks of age were used in each study. Animals were weighed and grouped according to body weight for preparing dosing solutions based on group average weight. LNPs were dosed via the lateral tail vein in a volume of 0.2 mL per animal (approximately 10 mL per kilogram body weight). The animals were periodically observed post dose for adverse effects for at least 24 hours post dose. Animals were euthanized at 6 or 7 days by exsanguination via cardiac puncture under isoflurane anesthesia. Blood was collected into serum separator tubes or into tubes containing buffered sodium citrate for plasma as described herein. For studies involving in vivo editing, liver tissue was collected from each animal for DNA extraction and analysis.
Cohorts of mice were measured for liver editing by Next-Generation Sequencing (NGS).
In brief, to quantitatively determine the efficiency of editing at the target location in the genome, genomic DNA was isolated and deep sequencing was utilized to identify the presence of insertions and deletions introduced by gene editing.
PCR primers were designed around the target site (e.g., B2M), and the genomic area of interest was amplified. Additional PCR was performed according to the manufacturer's protocols (Illumina) to add the necessary chemistry for sequencing. The amplicons were sequenced on an Illumina MiSeq instrument. The reads were aligned to the […] after eliminating those having low quality scores. The resulting files containing the reads were mapped to the reference genome (BAM files), where reads that overlapped the target region of interest were selected and the number of wild type reads versus the number of reads which contain an insertion, substitution, or deletion was calculated.
The editing percentage (e.g., the “editing efficiency” or “percent editing”) is defined as the total number of sequence reads with insertions or deletions over the total number of sequence reads, including wild type.
CD-1 female mice were dosed i.v. at 0.1 mpk or 0.3 mpk. […] For animals dosed with G282 targeting TTR, blood and the liver were collected and serum TTR and editing were measured. For animals dosed with G650 targeting B2M, liver was collected and editing was measured.

[4] = test system: TTR; test: Transthyretin (TTR) ELISA analysis of mouse serum after LNP dosing; format: in vivo; settings: for response vs control in vivo at 0.1 mg/kg / response vs control in vivo at 0.03 mg/kg: read-out: Serum TTR % TSS
Summary of the method: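 Female CD-1 mice aged 6-10 weeks were grouped by body weight and given LNPs by lateral tail vein injection (0.2 mL per animal, about 10 mL per kilogram). Mice were bled by cardiac puncture under isoflurane into serum separator tubes. Serum was diluted 10,000-fold for the 0.1 mpk dose, and total TTR was quantified with a Mouse Prealbumin (Transthyretin) ELISA Kit following the kit directions.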

[5] = Example 55: 0.1 mpk i.v., 7 days post-dose, G282 1:1
[6] = Example 56: 0.1 mpk i.v., 7 days post-dose, G282

CCCCC/C=C\C/C=C\CCCCCCCC(=O)OCC(COC(=O)CCC(OCCCCCCCC)OCCCCCCCC)COC(=O)OCCCN(CC)CC (stereo not shown) [Compound 19, 3-((4,4-bis(octyloxy)butanoyl)oxy)-2-(((((3-(diethylamino)propoxy))-carbonyl)oxy)methyl)propyl (9Z,12Z)-octadeca-9,12-dienoate, reference compound]
pKa [1]: 6.4
Encapsulation (%) ([2]; Table 3, Example 52: LNP, Cas9 mRNA + sgRNA (G650) 1:1 w/w, N:P 6.0, Compound 19 50/9/38/3, others 50/10/38.5/1.5): 98%
Encapsulation (%) ([2]; Table 5, Example 53: LNP with gRNA G282 (TTR), 1:1 w/w, N:P 6.0): 99%
Encapsulation (%) ([2]; Table 5, Example 53: LNP with gRNA G650 (B2M), 1:1 w/w, N:P 6.0): 98%
Encapsulation (%) ([2]; Table 8, Example 54: LNP, G650 (B2M) 1:1 w/w, N:P 6.0): 98%
Encapsulation (%) ([2]; Table 10, Example 55: LNP, G282 (TTR) 1:1 w/w, N:P 6.0): 98%
Encapsulation (%) ([2]; Table 12, Example 56: LNP, G282 (TTR), ratio 6.0): 97%
Encapsulation (%) ([2]; Table 14, Example 58: LNP, G282 (TTR) 1:1 w/w, N:P 6.0): 99%
Encapsulation (%) ([2]; Table 16, Example 59: LNP, G282 (TTR) 1:1 w/w, N:P 6.0): 98%
Encapsulation (%) ([2]; Table 18, Example 60: LNP, G502 (TTR), sgRNA:Cas9 mRNA 1:2 w/w, N:P 6.0): 99%
Encapsulation (%) ([2]; Table 20, Example 61: LNP, G282 (TTR) 1:1 w/w, N:P 6.0): 98%
Encapsulation (%) ([2]; Table 22, Example 62: LNP, G282 (TTR), sgRNA:Cas9 mRNA 1:2 w/w, N:P 6.0): 99%
Encapsulation (%) ([2]; Table 24, Example 63: LNP, G282 (TTR) 1:1 w/w, NP 6.0): 98%
Encapsulation (%) ([2]; Table 26, Example 64: LNP, G282 (TTR) 1:1 w/w, N:P 6.0): 98%
Editing (%) of B2M in mouse liver ([3]; Example 52: LNP single dose 0.1 mg/kg i.v., CD-1 female mice, sgRNA G650:Cas9 mRNA 1:1, NGS): 12.0%
Editing (%) B2M liver ([3]; Example 53: 0.1 mpk i.v., CD-1 female mice): 25.5%
Editing (%) B2M liver ([3]; Example 53: 0.3 mpk i.v., CD-1 female mice): 43.4%
dose response of B2M editing in liver ([3]; Example 53 text: 0.1 mpk vs 0.3 mpk): increased editing of B2M in liver significantly between the 0.1 mpk and 0.3 mpk doses
% Editing B2M in mouse liver ([3]; Example 54: 0.1 mpk i.v., CD-1 female mice): 13%
% Editing B2M in mouse liver ([3]; Example 54: 0.3 mpk i.v., CD-1 female mice): 44%
dose response of B2M editing in liver ([3]; Example 54 text: 0.1 mpk vs 0.3 mpk, 7 days): increased editing at the 0.3 mpk dose compared to the 0.1 mpk dose
TSS (serum TTR % TSS) ([4]; Example 53: 0.1 mpk i.v., 6 days post-dose, G282 1:1): 85 % TSS
Serum TTR ([4]; Example 53: 0.1 mpk i.v., CD-1 female mice, 6 days post-dose, G282 1:1): 55 µg/mL
TSS (serum TTR % TSS) ([4]; Example 53: 0.3 mpk i.v., 6 days post-dose, G282 1:1): 3 % TSS
Serum TTR ([4]; Example 53: 0.3 mpk i.v., CD-1 female mice, 6 days post-dose, G282 1:1): 55 µg/mL
Serum TTR [4, 5]: 528 µg/mL
Serum TTR (% TSS) [4, 5]: 46 % TSS
Serum TTR [4, 6]: 865 µg/mL
Serum TTR (% TSS) [4, 6]: 108 % TSS
Serum TTR ([4]; Example 59: 0.1 mpk i.v., 7 days post-dose, G282 1:1): 438 µg/mL
Serum TTR ([4]; Example 60: 0.1 mpk i.v., 6 days post-dose, G502 1:2): 517 µg/mL
Serum TTR ([4]; Example 61: 0.1 mpk i.v., 7 days post-dose, G282 1:1): 438 µg/mL
Serum TTR ([4]; Example 62: 0.03 mpk i.v., 7 days post-dose, G282 1:2): 560 µg/mL
Serum TTR ([4]; Example 62: 0.1 mpk i.v., 7 days post-dose, G282 1:2): 414 µg/mL
Serum TTR ([4]; Example 63: 0.03 mpk i.v., 7 days post-dose, G282 1:1): 593.01 µg/mL
Serum TTR ([4]; Example 63: 0.1 mpk i.v., 7 days post-dose, G282 1:1): 134.54 µg/mL
Serum TTR ([4]; Example 64: Dose 0.03 mpk (table) i.v., 7 days post-dose, G282 1:1): 622.0 µg/mL
response vs control in vivo at 0.1 mg/kg ([4]; Mus musculus, iv, 144 h, Example 58: 0.1 mpk i.v., 6 days post-dose, G282 1:1): 59%
response vs control in vivo at 0.1 mg/kg ([4]; Mus musculus, iv, 144 h, Example 60: 0.1 mpk i.v., 6 days post-dose, G502 1:2): 36%
response vs control in vivo at 0.1 mg/kg ([4]; Mus musculus, iv, 168 h, Example 59: 0.1 mpk i.v., 7 days post-dose, G282 1:1): 47%
response vs control in vivo at 0.1 mg/kg ([4]; Mus musculus, iv, 168 h, Example 61: 0.1 mpk i.v., 7 days post-dose, G282 1:1): 34%
response vs control in vivo at 0.03 mg/kg ([4]; Mus musculus, iv, 168 h, Example 62: 0.03 mpk i.v., 7 days post-dose, G282 1:2): 88%
response vs control in vivo at 0.1 mg/kg ([4]; Mus musculus, iv, 168 h, Example 62: 0.1 mpk i.v., 7 days post-dose, G282 1:2): 65%
response vs control in vivo at 0.03 mg/kg ([4]; Mus musculus, iv, 168 h, Example 63: 0.03 mpk i.v., 7 days post-dose, G282 1:1): 73.5%
response vs control in vivo at 0.1 mg/kg ([4]; Mus musculus, iv, 168 h, Example 63: 0.1 mpk i.v., 7 days post-dose, G282 1:1): 16.7%
inhibition in vivo at 0.03 mg/kg ([4]; Mus musculus, iv, 168 h, Example 64: Dose 0.03 mpk (table) i.v., 7 days post-dose, G282 1:1, read-out: Serum TTR (% KD)): -8.6%
